One assay concerns the target GSPT1 (Homo sapiens (Human), UniProt P15170+Q96SW2). Kind of assay: Immunofluorescence assay for GSPT1 degradation in CAL-Si cells. It counts as cell-based. The conditions noted are these: CAL-Si cells. The method, then: The compounds were tested in an immunofluorescence assay for their activity to bind to degrade GSPT1. CAL-Si cells were purchased from DSMZ (cat. Number ACC302), sub-cultured in 90% Dulbecco's MEM (4.5 g/L glucose, Gibco 11965)+10% heat inactivated FBS (BioConcept, 2-01F136I) and incubated at 37° C., 5% CO2. For the assay, imaging microtiterplate Cell Carrier 96 Ultra (Perkin Elmer 6055302) were pre-coated with Fibronectin (Sigma F085, 30 μl at 0.2 μg/ml) in PBS (100 μl, Gibco 14190) for 45 min at room temperature, rinsed with PBS and CAL-Si cells (30K cells/well) were plated and let to adhere overnight. Cells were treated with compounds typically using a serial dilution ranging from 30 μM to 0.1 nM for 6 hours. Compounds were stored at 10 mM DMSO stocks. Vehicle (DMSO), positive (CC-885, 10 μM) and rescue controls (positive control plus 0.2 μM bortezomib) were also included at this stage. Cells were subsequently rinsed with PBS and fixed in 10% Formalin solution (50 μl, Sigma HT5011)) for 20 mins at room temperature. Following three consecutive PBS washes (100 μl), cells were permeabilized in 0.1% Triton X-100 in PBS (Sigma 93443, 50 μl) for 15 mins at room temperature. Following three further PBS washes, 50 μl blocking buffer (1% BSA, Sigma A4503, in PBS) was added for 45 min for signal-to-noise reduction.
Primary antibody (human GSPT1, Sigma HPA052488) was diluted in blocking buffer (dil.1/300, 35 μl/well) and incubated with the cells overnight at 4° C. After three PBS washes, Alexa-fluor 488 coupled secondary antibodies (Invitrogen, A32731, dil.1/1000), Alexa-fluor 647-Phalloïdin (Invitrogen, A22287, dil.1/200) and DAPI (Thermo, #62248, dil.1/1000) were diluted in blocking buffer and incubated with the samples for 2 hours at room temperature. After three final PBS washes, samples were conserved in 100 μl PBS in the dark, until measurement. Image acquisition was performed on the Operetta High-Content Imager (Perkin-Elmer). Fluorescence intensity of Alexa-Fluor 488 (GSPT1), Alexa-Fluor 647 (Actin) and DAPI (Nucleus) were measured. For the determination of GSPT1 DC50 values, a custom algorithm implemented in the PerkinElmer image analysis software Harmony-Acapella® was developed. After user-defined setting of adjustment parameters, the analysis was run identically without human intervention for all image fields. DAPI staining of the nuclei was used to determine the location of cells using standard nuclei detection modules. Segmentation artifacts were removed by threshold-based filters for area, roundness and intensity. The outline of the cells was determined analogously from the sum of the normalized, smoothed DAPI and Actin channel, starting from each nucleus. The Alexa-Fluor 488 (GSPT1) signal intensity in each cell was finally measured, in order to obtain a Mean intensity per cell. GSPT1 degradation (DC50) was calculated after normalization to controls and data import in CDD vault Database, using non-linear regression.

Assay [1] deals with Full length wild-type cereblon CRBN (Homo sapiens (Human), UniProt Q96SW2). Kind of assay: Fluorescence polarization (FP) assay, cereblon binding. The method, then: Compound activity was monitored in a fluorescence polarization (FP) homogeneous assay using 1-[5-({2-[2-(2-{[2-(2,6-dioxopiperidin-3-yl)-1,3-dioxo-2,3-dihydro-1H-isoindol-4-yl]oxy}acetamido)ethoxy]ethyl}carbamoyl)pentyl]-3,3-dimethyl-2-[(1E,3E)-5-[(2E)-1,3,3-trimethyl-5-sulfo-2,3-dihydro-1H-indol-2-ylidene]penta-1,3-dien-1-yl]-3H-indol-1-ium-5-sulfonate as a fluorescent probe. Unless otherwise stated, all reagents were purchased from Sigma Aldrich. Enzymatic reactions were conducted in Perkin-Elmer Black 384 well ProxiPlate Plus (catalogue no. 6008269) in 10 sL total volume. Full length wild-type cereblon CRBN (80.0 nM, 10 sL) was incubated in assay buffer containing 20 mM HEPES (pH 8.0), […], 0.5 mM TCEP and 0.05% Tween 20 in the presence or absence of compound (300 nL). Inhibitors were stored as 10 mM DMSO stocks in an inert environment (low humidity, dark, low oxygen, room temperature) using the Storage Pod System.
Chain of Full length wild-type cereblon CRBN (Q96SW2 whole entry): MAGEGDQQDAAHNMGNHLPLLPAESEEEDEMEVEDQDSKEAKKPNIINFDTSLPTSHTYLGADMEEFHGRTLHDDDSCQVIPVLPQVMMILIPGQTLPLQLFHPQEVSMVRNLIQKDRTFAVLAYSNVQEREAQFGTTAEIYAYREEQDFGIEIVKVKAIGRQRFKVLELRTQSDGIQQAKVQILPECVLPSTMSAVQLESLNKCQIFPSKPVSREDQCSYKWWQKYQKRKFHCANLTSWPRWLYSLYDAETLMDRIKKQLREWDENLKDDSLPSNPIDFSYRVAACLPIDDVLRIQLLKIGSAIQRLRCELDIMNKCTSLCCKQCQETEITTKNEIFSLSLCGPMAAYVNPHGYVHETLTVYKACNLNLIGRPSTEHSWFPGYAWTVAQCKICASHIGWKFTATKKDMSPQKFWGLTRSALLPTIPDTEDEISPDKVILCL
Compounds and DMSO were dispensed using the Echo E5XX (Labcyte Inc. USA) to give concentrations from 300 to 0.937 or 3000 to 9.3 nM in a 12 data point curve. […] Following incubation at room temperature for 30 min, the assay was initiated by dispensing the probe to a final concentration of 5 nM (2.5 nL of a 20 μM stock) using the Echo E5XX. FP was measured after a period of 12 hours using a Pherastar plate reader (BMG Labtech, Germany) exciting at 590 nm and measuring the amount of parallel and perpendicular light at 675 nm. The FP signal was subsequently normalized to the no-compound control (i.e., DMSO). Analysis and IC50 values were derived using Dotmatics (Dotmatics UK) software.
A general note: Fluorescence polarisation rises when a labelled molecule tumbles more slowly, as on binding a larger partner.

Setting [2] is: compounds with code A, read-out: DC50 value code.
Setting [3] is: treated 6 hours, read-out: Code, activity for GSPT1 degradation (DC50).
The mark [4] stands for this setting: cereblon binding, bound, read-out: IC50 value.
[5] abbreviates: wild-type CRBN 80.0 nM, probe 5 nM, FP measured after 12 hours, read-out: rFP IC50.

Like-named read-outs stand apart in the source and are kept apart here.

Chain of GSPT1 (P15170 whole entry): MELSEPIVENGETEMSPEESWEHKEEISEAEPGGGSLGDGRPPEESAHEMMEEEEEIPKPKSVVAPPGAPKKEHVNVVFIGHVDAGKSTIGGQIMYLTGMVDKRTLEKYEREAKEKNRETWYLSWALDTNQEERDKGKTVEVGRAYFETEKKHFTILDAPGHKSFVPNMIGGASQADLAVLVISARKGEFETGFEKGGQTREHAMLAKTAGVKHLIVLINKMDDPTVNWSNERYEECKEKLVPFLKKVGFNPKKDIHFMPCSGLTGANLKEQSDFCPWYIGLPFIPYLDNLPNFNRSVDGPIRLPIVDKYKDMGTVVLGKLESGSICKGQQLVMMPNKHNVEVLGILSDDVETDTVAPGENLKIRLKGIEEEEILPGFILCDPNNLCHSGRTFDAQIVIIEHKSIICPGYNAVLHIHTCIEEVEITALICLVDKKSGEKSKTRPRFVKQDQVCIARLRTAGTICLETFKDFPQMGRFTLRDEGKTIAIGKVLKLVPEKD
Chain of GSPT1 (Q96SW2 whole entry): as the sequence (Q96SW2 whole entry) above
Chain of GSPT1 (Q16531 whole entry partner): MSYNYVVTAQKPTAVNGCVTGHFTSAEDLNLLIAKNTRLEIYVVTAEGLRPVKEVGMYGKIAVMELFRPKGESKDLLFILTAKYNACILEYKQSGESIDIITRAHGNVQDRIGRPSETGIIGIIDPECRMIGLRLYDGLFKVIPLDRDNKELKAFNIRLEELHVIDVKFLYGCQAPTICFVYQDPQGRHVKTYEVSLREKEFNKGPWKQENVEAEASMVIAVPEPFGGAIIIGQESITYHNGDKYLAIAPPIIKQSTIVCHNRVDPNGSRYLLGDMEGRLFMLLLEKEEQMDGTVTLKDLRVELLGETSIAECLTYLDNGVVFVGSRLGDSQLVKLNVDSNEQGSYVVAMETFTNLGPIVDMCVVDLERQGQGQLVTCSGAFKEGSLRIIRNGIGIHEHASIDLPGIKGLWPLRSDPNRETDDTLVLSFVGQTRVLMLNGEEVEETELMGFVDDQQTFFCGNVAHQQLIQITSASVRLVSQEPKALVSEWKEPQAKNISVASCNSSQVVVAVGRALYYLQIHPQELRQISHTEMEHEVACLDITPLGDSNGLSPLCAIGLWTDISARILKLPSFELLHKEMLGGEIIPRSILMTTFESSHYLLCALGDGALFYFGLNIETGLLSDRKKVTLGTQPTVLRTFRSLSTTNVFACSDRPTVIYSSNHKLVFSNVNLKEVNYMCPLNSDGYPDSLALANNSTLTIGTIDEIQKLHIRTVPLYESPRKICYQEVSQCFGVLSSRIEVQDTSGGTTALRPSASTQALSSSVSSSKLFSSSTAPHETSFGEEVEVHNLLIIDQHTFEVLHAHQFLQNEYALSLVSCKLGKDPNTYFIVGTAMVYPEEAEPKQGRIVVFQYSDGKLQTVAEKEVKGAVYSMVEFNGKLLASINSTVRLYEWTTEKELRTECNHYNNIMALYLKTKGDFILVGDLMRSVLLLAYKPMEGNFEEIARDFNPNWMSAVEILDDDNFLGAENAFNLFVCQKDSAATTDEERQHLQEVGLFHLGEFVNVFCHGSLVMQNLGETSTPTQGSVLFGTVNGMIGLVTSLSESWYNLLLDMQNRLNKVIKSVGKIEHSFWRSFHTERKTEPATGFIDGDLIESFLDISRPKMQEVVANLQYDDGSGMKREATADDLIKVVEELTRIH

On to `COc1cc(COC(=O)Nc2cc(F)cc(Cl)c2)cc2c1CN(C1CCC(=O)NC1=O)C2=O` (stereo not drawn) [Compound 50, (2-(2,6-dioxopiperidin-3-yl)-7-methoxy-3-oxoisoindolin-5-yl)methyl(3-chloro-5-fluorophenyl)carbamate], for which the DC50 on GSPT1 (setting [2]) and on GSPT1 (setting [3]) was less than 30 nM in each case. In addition, the results for the half-inhibitory concentration (IC50) in assay [1] (setting [4]) and in assay [1] (setting [5]) were less than 600 nM and 600 to 1200 nM, respectively.

In the case of `COc1cc(COC(=O)Nc2ccc(C3(C)CC3)cc2)cc2c1CN(C1CCC(=O)NC1=O)C2=O` (stereo not drawn) [Compound 40, (2-(2,6-dioxopiperidin-3-yl)-7-methoxy-3-oxoisoindolin-5-yl)methyl (4-(1-methylcyclopropyl)phenyl)carbamate], the DC50 on GSPT1 (setting [2]) and on GSPT1 (setting [3]) was less than 30 nM each time. Besides, the concentration for half-maximal inhibition (IC50) (usually the concentration that inhibits the measured activity by half) was less than 600 nM in assay [1] (setting [4]) and no more than 600 nM in assay [1] (setting [5]).

Turning to `COc1cc(COC(=O)Nc2ccc(C)c(Cl)c2)cc2c1CN(C1CCC(=O)NC1=O)C2=O` (stereo not drawn) [Compound 5, (2-(2,6-dioxopiperidin-3-yl)-7-methoxy-3-oxoisoindolin-5-yl)methyl(3-chloro-4-methylphenyl)carbamate], the DC50 at GSPT1 (setting [2]) and at GSPT1 (setting [3]) was less than 30 nM each time. Also, the results for the IC50 in assay [1] (setting [4]) and in assay [1] (setting [5]) were less than 600 nM and 600 to 1200 nM, respectively.

As to `Cc1ccc(NC(=O)OCc2cc(Br)c3c(c2)C(=O)N(C2CCC(=O)NC2=O)C3)cc1Cl` (stereo not drawn) [Compound 1, (7-bromo-2-(2,6-dioxopiperidin-3-yl)-3-oxoisoindolin-5-yl)methyl(3-chloro-4-methylphenyl)carbamate], at GSPT1 (setting [3]), the half-maximal degradation concentration (DC50) (in general, the concentration giving 50% degradation) is 30 to 300 nM. The IC50 in assay [1] (setting [5]) is greater than 1900 nM.

Consider `O=C1CCC(N2Cc3c(F)cc(COC(=O)Nc4cccc(OC(F)(F)F)c4)cc3C2=O)C(=O)N1` (stereo not drawn) [Compound 15, (2-(2,6-dioxopiperidin-3-yl)-7-fluoro-3-oxoisoindolin-5-yl)methyl (3-(trifluoromethoxy)phenyl)carbamate], for which, at GSPT1 (setting [3]), the 50% degradation concentration (DC50) lay in the range of 30 to 300 nM. In assay [1] (setting [5]), the half-maximal inhibitory concentration (IC50) is greater than 1900 nM.

Consider `O=C1CCC(N2Cc3c(F)cc(COC(=O)Nc4ccc(-c5ccccn5)cc4)cc3C2=O)C(=O)N1` (stereo not drawn) [Compound 11, (2-(2,6-dioxopiperidin-3-yl)-7-fluoro-3-oxoisoindolin-5-yl)methyl (4-(pyridin-2-yl)phenyl)carbamate], for which the DC50 at GSPT1 (setting [2]) and at GSPT1 (setting [3]) was less than 30 nM each time. The results for the IC50 in assay [1] (setting [4]) and in assay [1] (setting [5]) were less than 600 nM and no more than 600 nM, respectively.

For the molecule `O=C1CCC(N2Cc3c(F)cc(COC(=O)Nc4cc(Cl)cc(OC(F)F)c4)cc3C2=O)C(=O)N1` (stereo not drawn) [Compound 34, (2-(2,6-dioxopiperidin-3-yl)-7-fluoro-3-oxoisoindolin-5-yl)methyl(3-chloro-5-(difluoromethoxy)phenyl)carbamate], at GSPT1 (setting [3]), the DC50 was in the range of 30 to 300 nM. In addition, the IC50 in assay [1] (setting [5]) was greater than 1900 nM.

As to `O=C1CCC(N2Cc3c(F)cc(COC(=O)Nc4ccc(-c5ccccc5)nc4)cc3C2=O)C(=O)N1` (stereo not drawn) [Compound 8, (2-(2,6-dioxopiperidin-3-yl)-7-fluoro-3-oxoisoindolin-5-yl)methyl(6-phenylpyridin-3-yl)carbamate], the half-maximal degradation concentration (DC50) at GSPT1 (setting [2]) and on GSPT1 (setting [3]) was less than 30 nM in each case. In addition, the IC50 in assay [1] (setting [5]) is greater than 1900 nM.

Turning to `COc1cc(COC(=O)Nc2ccc3c(c2)OCC3(C)C)cc2c1CN(C1CCC(=O)NC1=O)C2=O` (stereo not drawn) [Compound 37, (2-(2,6-dioxopiperidin-3-yl)-7-methoxy-3-oxoisoindolin-5-yl) methyl(3,3-dimethyl-2,3-dihydrobenzofuran-6-yl)carbamate], the DC50 at GSPT1 (setting [2]) and at GSPT1 (setting [3]) was less than 30 nM each time. For the same molecule, the IC50 in assay [1] (setting [4]) is less than 1200 nM.

On to `O=C1CCC(N2Cc3c(F)cc(COC(=O)Nc4cc(-c5ccccc5)ccn4)cc3C2=O)C(=O)N1` (stereo not drawn) [Compound 24, (2-(2,6-dioxopiperidin-3-yl)-7-fluoro-3-oxoisoindolin-5-yl)methyl(4-phenylpyridin-2-yl)carbamate], for which the half-maximal degradation concentration (DC50) at GSPT1 (setting [3]) lay in the range of 30 to 300 nM. Further, the concentration for half-maximal inhibition (IC50) in assay [1] (setting [5]) was greater than 1900 nM.

In the case of `CC1CCCCN1c1ccc(NC(=O)OCc2cc(F)c3c(c2)C(=O)N(C2CCC(=O)NC2=O)C3)cn1` (stereo not drawn) [Compound 16, (2-(2,6-dioxopiperidin-3-yl)-7-fluoro-3-oxoisoindolin-5-yl)methyl (6-(2-methylpiperidin-1-yl)pyridin-3-yl)carbamate], the DC50 on GSPT1 (setting [2]) and on GSPT1 (setting [3]) was less than 30 nM each time. Moreover, the figures for the concentration for half-maximal inhibition (IC50) in assay [1] (setting [4]) and in assay [1] (setting [5]) were less than 600 nM and 600 to 1200 nM, respectively.

Regarding `COc1cc(COC(=O)Nc2cnc(-c3ccccc3)c(C)c2)cc2c1CN(C1CCC(=O)NC1=O)C2=O` (stereo not drawn) [Compound 59, (2-(2,6-dioxopiperidin-3-yl)-7-methoxy-3-oxoisoindolin-5-yl)methyl(5-methyl-6-phenylpyridin-3-yl)carbamate], the DC50 on GSPT1 (setting [2]) and on GSPT1 (setting [3]) was less than 30 nM in each case. In addition, the IC50 in assay [1] (setting [4]) was less than 600 nM; in assay [1] (setting [5]), no more than 600 nM.

Take `COc1cc(COC(=O)Nc2ccc(F)c(Cl)c2)cc2c1CN(C1CCC(=O)NC1=O)C2=O` (stereo not drawn) [Compound 51, (2-(2,6-dioxopiperidin-3-yl)-7-methoxy-3-oxoisoindolin-5-yl)methyl(3-chloro-4-fluorophenyl)carbamate]: the DC50 at GSPT1 (setting [3]) fell in the range of 30 to 300 nM. Also, the IC50 in assay [1] (setting [4]) was less than 600 nM; in assay [1] (setting [5]), 600 to 1200 nM.

On to `Cc1ccc(NC(=O)OCc2cc(C#N)c3c(c2)C(=O)N(C2CCC(=O)NC2=O)C3)cc1Cl` (stereo not drawn) [Compound 2, (7-cyano-2-(2,6-dioxopiperidin-3-yl)-3-oxoisoindolin-5-yl)methyl (3-chloro-4-methylphenyl)carbamate], for which the half-maximal degradation concentration (DC50) on GSPT1 (setting [3]) lay in the range of 30 to 300 nM. Also, the half-inhibitory concentration (IC50) in assay [1] (setting [5]) was greater than 1900 nM.

On to `Cc1cc(C)cc(NC(=O)OCc2cc(F)c3c(c2)C(=O)N(C2CCC(=O)NC2=O)C3)c1` (stereo not drawn) [Compound 31, (2-(2,6-dioxopiperidin-3-yl)-7-fluoro-3-oxoisoindolin-5-yl)methyl (3,5-dimethylphenyl)carbamate], for which, on GSPT1 (setting [3]), the DC50 lay within 30 to 300 nM. Besides, the IC50 in assay [1] (setting [5]) was greater than 1900 nM.

As to `Cc1ccc(NC(=O)OCc2cc(F)c3c(c2)C(=O)N(C2CCC(=O)NC2=O)C3)cc1Cl` (stereo not drawn) [Compound 3, (2-(2,6-dioxopiperidin-3-yl)-7-fluoro-3-oxoisoindolin-5-yl)methyl(3-chloro-4-methylphenyl)carbamate], the DC50 on GSPT1 (setting [3]) was 30 to 300 nM. For the same molecule, the IC50 in assay [1] (setting [5]) is greater than 1900 nM.

Take `COc1cc(COC(=O)Nc2ccc(-c3ccccc3F)nc2)cc2c1CN(C1CCC(=O)NC1=O)C2=O` (stereo not drawn) [Compound 36, (2-(2,6-dioxopiperidin-3-yl)-7-methoxy-3-oxoisoindolin-5-yl)methyl (6-(2-fluorophenyl)pyridin-3-yl)carbamate]: the 50% degradation concentration (DC50) at GSPT1 (setting [2]) and on GSPT1 (setting [3]) was less than 30 nM throughout. For the same molecule, the IC50 in assay [1] (setting [4]) was less than 600 nM; in assay [1] (setting [5]) it was 1200 to 1900 nM.

The values are drawn from US20240051936A1, “ISOINDOLINONE COMPOUNDS” (Monte Rosa Therapeutics, Inc., priority 2021, published 2024).
